Like-named read-outs stand apart in the source and are kept apart here.
Columns and labels:
T29Kt1 cells = assay: cells; conditions: Homo sapiens, T29Kt1, read-out: IC50 in T29k cells, Table 1
K-562 = assay: NCI in-vitro testing, K-562 (Leukemia)
RPMI-8226 = assay: NCI in-vitro testing, RPMI-8226 (Leukemia)
TK-10 = assay: NCI in-vitro testing, TK-10 (Renal Cancer)
MCF7 = assay: NCI in-vitro testing, MCF7 (Breast Cancer)
HCT-116 = assay: NCI in-vitro testing, HCT-116 (Colon Cancer)
HCC-2998 = assay: NCI in-vitro testing, HCC-2998 (Colon Cancer)
OVCAR-3 = assay: NCI in-vitro testing, OVCAR-3 (Ovarian Cancer)
OVCAR-5 = assay: NCI in-vitro testing, OVCAR-5 (Ovarian Cancer)
SK-OV-3 = assay: NCI in-vitro testing, SK-OV-3 (Ovarian Cancer)
MDA-MB-231/ATCC = assay: NCI in-vitro testing, MDA-MB-231/ATCC (Breast Cancer)
NCI-H23 = assay: NCI in-vitro testing, NCI-H23 (Non-Small Cell Lung Cancer)

For `OCc1cn(Cc2ccc(Cl)cc2)c2ccccc12` [Oncrasin K060, 1H-Indole-3-methanol, 1-[(4-chlorophenyl)methyl]-], the IC50 (T29Kt1 cells) was 0.0794 µM, the GI50 (K-562; Homo sapiens, K562) was 19.2 µM and the CC50 (K-562; Homo sapiens, K562, read-out: LC50) was 6.46 µM. The GI50 (K-562; Homo sapiens, K562, read-out: Log10 GI50 (converted)) was 1.91 µM, the TGI (K-562; K-562) was 1.26E−6 Molar and the “Percent Growth” value (K-562; K-562, Log10 Concentration −4.0 Molar) was −71%. The “Percent Growth” value (K-562; K-562, Log10 Concentration −5.0 Molar) was 8%, the “Percent Growth” value (K-562; K-562, Log10 Concentration −6.0 Molar) was 67% and the “Percent Growth” value (K-562; K-562, Log10 Concentration −7.0 Molar) was 100%. The “Percent Growth” value (K-562; K-562, Log10 Concentration −8.0 Molar) was 114%, the GI50 (RPMI-8226; Homo sapiens, RPMI-8226) was 0.372 µM and the CC50 (RPMI-8226; Homo sapiens, RPMI-8226, read-out: LC50) was > 100 µM. For the same molecule, the GI50 (RPMI-8226; Homo sapiens, RPMI-8226, read-out: Log10 GI50 (converted)) was 0.372 µM, the TGI (RPMI-8226; RPMI-8226) was 3.19E−6 Molar and the “Percent Growth” value (RPMI-8226; RPMI-8226, Log10 Concentration −4.0 Molar) was −35%. The “Percent Growth” value (RPMI-8226; RPMI-8226, Log10 Concentration −5.0 Molar) was −23%, the “Percent Growth” value (RPMI-8226; RPMI-8226, Log10 Concentration −6.0 Molar) was 24% and the “Percent Growth” value (RPMI-8226; RPMI-8226, Log10 Concentration −7.0 Molar) was 85%. The “Percent Growth” value (RPMI-8226; RPMI-8226, Log10 Concentration −8.0 Molar) was 119%, the GI50 (TK-10; Homo sapiens, TK-10) was 0.0153 µM and the CC50 (TK-10; Homo sapiens, TK-10, read-out: LC50) was > 100 µM. For the same molecule, the GI50 (TK-10; Homo sapiens, TK-10, read-out: Log10 GI50 (converted)) was 0.0151 µM, the TGI (TK-10; TK-10) was 8.94E−8 Molar and the “Percent Growth” value (TK-10; TK-10, Log10 Concentration −4.0 Molar) was −18%. The “Percent Growth” value (TK-10; TK-10, Log10 Concentration −5.0 Molar) was −8%, the “Percent Growth” value (TK-10; TK-10, Log10 Concentration −6.0 Molar) was −10% and the “Percent Growth” value (TK-10; TK-10, Log10 Concentration −7.0 Molar) was −3%. The “Percent Growth” value (TK-10; TK-10, Log10 Concentration −8.0 Molar) was 82%, the GI50 (MCF7; Homo sapiens, MCF7) was 0.0573 µM and the CC50 (MCF7; Homo sapiens, MCF7, read-out: LC50) was > 100 µM. For the same molecule, the GI50 (MCF7; Homo sapiens, MCF7, read-out: Log10 GI50 (converted)) was 0.0676 µM, the TGI (MCF7; MCF7) was 2.75E−5 Molar and the “Percent Growth” value (MCF7; MCF7, Log10 Concentration −4.0 Molar) was −10%. For the same molecule, the “Percent Growth” value (MCF7; MCF7, Log10 Concentration −5.0 Molar) was 8%, the “Percent Growth” value (MCF7; MCF7, Log10 Concentration −6.0 Molar) was 10% and the “Percent Growth” value (MCF7; MCF7, Log10 Concentration −7.0 Molar) was 45%. For the same molecule, the “Percent Growth” value (MCF7; MCF7, Log10 Concentration −8.0 Molar) was 75%, the TGI (HCT-116; HCT-116) was 1.06E−5 Molar and the “Percent Growth” value (HCT-116; HCT-116, Log10 Concentration −4.0 Molar) was −64%. The “Percent Growth” value (HCT-116; HCT-116, Log10 Concentration −5.0 Molar) was 2%, the “Percent Growth” value (HCT-116; HCT-116, Log10 Concentration −6.0 Molar) was 10% and the “Percent Growth” value (HCT-116; HCT-116, Log10 Concentration −7.0 Molar) was 30%. The “Percent Growth” value (HCT-116; HCT-116, Log10 Concentration −8.0 Molar) was 68%, the GI50 (HCT-116; Homo sapiens, HCT-116) was 0.0204 µM and the CC50 (HCT-116; Homo sapiens, HCT-116, read-out: LC50) was 6.06 µM. For the same molecule, the GI50 (HCT-116; Homo sapiens, HCT-116, read-out: Log10 GI50 (converted)) was 0.0295 µM, the TGI (HCC-2998; HCC-2998) was 2.04E−5 Molar and the “Percent Growth” value (HCC-2998; HCC-2998, Log10 Concentration −4.0 Molar) was −97%. The “Percent Growth” value (HCC-2998; HCC-2998, Log10 Concentration −5.0 Molar) was 43%, the “Percent Growth” value (HCC-2998; HCC-2998, Log10 Concentration −6.0 Molar) was 62% and the “Percent Growth” value (HCC-2998; HCC-2998, Log10 Concentration −7.0 Molar) was 86%. The “Percent Growth” value (HCC-2998; HCC-2998, Log10 Concentration −8.0 Molar) was 95%, the GI50 (HCC-2998; Homo sapiens, HCC 2998) was 4.33 µM and the CC50 (HCC-2998; Homo sapiens, HCC 2998, read-out: LC50) was 45.2 µM. For the same molecule, the GI50 (HCC-2998; Homo sapiens, HCC 2998, read-out: Log10 GI50 (converted)) was 4.37 µM, the GI50 (OVCAR-3; Homo sapiens, OVCAR-3) was 0.569 µM and the CC50 (OVCAR-3; Homo sapiens, OVCAR-3, read-out: LC50) was 69.1 µM. The GI50 (OVCAR-3; Homo sapiens, OVCAR-3, read-out: Log10 GI50 (converted)) was 0.575 µM, the TGI (OVCAR-3; OVCAR-3) was 1.03E−5 Molar and the “Percent Growth” value (OVCAR-3; OVCAR-3, Log10 Concentration −4.0 Molar) was −60%. For the same molecule, the “Percent Growth” value (OVCAR-3; OVCAR-3, Log10 Concentration −5.0 Molar) was 1%, the “Percent Growth” value (OVCAR-3; OVCAR-3, Log10 Concentration −6.0 Molar) was 42% and the “Percent Growth” value (OVCAR-3; OVCAR-3, Log10 Concentration −7.0 Molar) was 77%. For the same molecule, the “Percent Growth” value (OVCAR-3; OVCAR-3, Log10 Concentration −8.0 Molar) was 95%, the GI50 (OVCAR-5; Homo sapiens, OVCAR-5) was < 0.01 µM and the CC50 (OVCAR-5; Homo sapiens, OVCAR-5, read-out: LC50) was > 100 µM. For the same molecule, the GI50 (OVCAR-5; Homo sapiens, OVCAR-5, read-out: Log10 GI50 (converted)) was < 0.01 µM, the TGI (OVCAR-5; OVCAR-5) was 3.72E−7 Molar and the “Percent Growth” value (OVCAR-5; OVCAR-5, Log10 Concentration −4.0 Molar) was −50%. For the same molecule, the “Percent Growth” value (OVCAR-5; OVCAR-5, Log10 Concentration −5.0 Molar) was −23%, the “Percent Growth” value (OVCAR-5; OVCAR-5, Log10 Concentration −6.0 Molar) was −7% and the “Percent Growth” value (OVCAR-5; OVCAR-5, Log10 Concentration −7.0 Molar) was 10%. For the same molecule, the “Percent Growth” value (OVCAR-5; OVCAR-5, Log10 Concentration −8.0 Molar) was 43%, the GI50 (SK-OV-3; Homo sapiens, SK-OV-3) was 1.82 µM and the CC50 (SK-OV-3; Homo sapiens, SK-OV-3, read-out: LC50) was > 100 µM. The GI50 (SK-OV-3; Homo sapiens, SK-OV-3, read-out: Log10 GI50 (converted)) was 1.82 µM, the TGI (SK-OV-3; SK-OV-3) was 2.96E−5 Molar and the “Percent Growth” value (SK-OV-3; SK-OV-3, Log10 Concentration −4.0 Molar) was −16%. The “Percent Growth” value (SK-OV-3; SK-OV-3, Log10 Concentration −5.0 Molar) was 16%, the “Percent Growth” value (SK-OV-3; SK-OV-3, Log10 Concentration −6.0 Molar) was 52% and the “Percent Growth” value (SK-OV-3; SK-OV-3, Log10 Concentration −7.0 Molar) was 85%. The “Percent Growth” value (SK-OV-3; SK-OV-3, Log10 Concentration −8.0 Molar) was 96%, the GI50 (MDA-MB-231/ATCC; Homo sapiens, MDA-MB-231) was 11 µM and the CC50 (MDA-MB-231/ATCC; Homo sapiens, MDA-MB-231, read-out: LC50) was > 100 µM. For the same molecule, the GI50 (MDA-MB-231/ATCC; Homo sapiens, MDA-MB-231, read-out: Log10 GI50 (converted)) was 11 µM, the TGI (MDA-MB-231/ATCC; MDA-MB-231/ATCC) was 4.23E−5 Molar and the “Percent Growth” value (MDA-MB-231/ATCC; MDA-MB-231/ATCC, Log10 Concentration −4.0 Molar) was −32%. The “Percent Growth” value (MDA-MB-231/ATCC; MDA-MB-231/ATCC, Log10 Concentration −5.0 Molar) was 53%, the “Percent Growth” value (MDA-MB-231/ATCC; MDA-MB-231/ATCC, Log10 Concentration −6.0 Molar) was 109% and the “Percent Growth” value (MDA-MB-231/ATCC; MDA-MB-231/ATCC, Log10 Concentration −7.0 Molar) was 120%. The “Percent Growth” value (MDA-MB-231/ATCC; MDA-MB-231/ATCC, Log10 Concentration −8.0 Molar) was 105%, the GI50 (NCI-H23; Homo sapiens, NCI-H23) was 2.9 µM and the CC50 (NCI-H23; Homo sapiens, NCI-H23, read-out: LC50) was 71.1 µM. For the same molecule, the GI50 (NCI-H23; Homo sapiens, NCI-H23, read-out: Log10 GI50 (converted)) was 2.88 µM, the TGI (NCI-H23; NCI-H23) was 2.10E−5 Molar and the “Percent Growth” value (NCI-H23; NCI-H23, Log10 Concentration −4.0 Molar) was −54%. The “Percent Growth” value (NCI-H23; NCI-H23, Log10 Concentration −5.0 Molar) was 31%, the “Percent Growth” value (NCI-H23; NCI-H23, Log10 Concentration −6.0 Molar) was 67% and the “Percent Growth” value (NCI-H23; NCI-H23, Log10 Concentration −7.0 Molar) was 82%. The “Percent Growth” value (NCI-H23; NCI-H23, Log10 Concentration −8.0 Molar) was 94%.
